Results: PubChem BioAssay (NCI)
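96-well plates; 48 h exposure; 5 concentrations. Endpoints by linear interpolation between flanking doses. Not reached: highest tested concentration assigned. Definition used: TGI = concentration required for complete inhibition of growth.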

Assays:
Assay in all cases: growth of human tumour cells (NCI), 48 h
OVCAR-5 ovarian = tested on: OVCAR-5 ovarian
SK-MEL-5 melanoma = tested on: SK-MEL-5 melanoma
OVCAR-4 ovarian = tested on: OVCAR-4 ovarian
EKVX NSCLC = tested on: EKVX NSCLC
SW-620 colon = tested on: SW-620 colon
NCI-H460 lung = tested on: NCI-H460 lung
786-0 renal = tested on: 786-0 renal
UACC-62 melanoma = tested on: UACC-62 melanoma
OVCAR-8 ovarian = tested on: OVCAR-8 ovarian
MDA-N = tested on: MDA-N
A498 renal = tested on: A498 renal
CCRF-CEM leukemia = tested on: CCRF-CEM leukemia
SN12C renal = tested on: SN12C renal
UO-31 renal = tested on: UO-31 renal
SNB-75 CNS = tested on: SNB-75 CNS
SF-268 CNS = tested on: SF-268 CNS
BT-549 breast = tested on: BT-549 breast
MCF7 breast = tested on: MCF7 breast
HS 578T breast = tested on: HS 578T breast
HOP-62 NSCLC = tested on: HOP-62 NSCLC

SMILES	TGI (OVCAR-5 ovarian)	TGI (SK-MEL-5 melanoma)	TGI (OVCAR-4 ovarian)	TGI (EKVX NSCLC)	TGI (SW-620 colon)	TGI (NCI-H460 lung)	TGI (786-0 renal)	TGI (UACC-62 melanoma)	TGI (OVCAR-8 ovarian)	TGI (MDA-N)	TGI (A498 renal)	TGI (CCRF-CEM leukemia)	TGI (SN12C renal)	TGI (UO-31 renal)	TGI (SNB-75 CNS)	TGI (SF-268 CNS)	TGI (BT-549 breast)	TGI (MCF7 breast)	TGI (HS 578T breast)	TGI (HOP-62 NSCLC)
C=CCN1CCC(O)(c2cc(C(=O)OCC)[nH]c2-c2cc(C)no2)C1 (stereo not drawn)	> 100 µM	> 100 µM	> 100 µM	> 100 µM	> 100 µM	> 100 µM	> 100 µM	> 100 µM	> 100 µM	> 100 µM	> 100 µM	> 100 µM	> 100 µM	> 100 µM	> 100 µM	> 100 µM	> 100 µM	–	–	–
CC(=O)O[C@H]1CC[C@@]2(C)C(=CC[C@H]3[C@@H]4C/C(=C\c5ccc(N(C)C)cc5)[C@H](OC(C)=O)[C@@]4(C)CC[C@@H]32)C1	52.8 µM	74.9 µM	69 µM	36.7 µM	46.4 µM	18.2 µM	19.1 µM	20.7 µM	23.4 µM	36 µM	36.6 µM	–	37.9 µM	27.7 µM	> 100 µM	26.7 µM	33.4 µM	26.6 µM	9.36 µM	51.6 µM
c1ccc2c(c1)SCCC2NC1=NCCO1 (stereo not drawn)	> 100 µM	> 100 µM	> 100 µM	> 100 µM	> 100 µM	> 100 µM	> 100 µM	> 100 µM	> 100 µM	> 100 µM	> 100 µM	> 100 µM	> 100 µM	> 100 µM	> 100 µM	> 100 µM	–	> 100 µM	> 100 µM	> 100 µM
[N-]=[N+]=NCc1nc(N)c2c3c(sc2n1)CCCC3	10.1 µM	3.41 µM	1.42 µM	4.95 µM	> 100 µM	13.6 µM	1.55 µM	23.6 µM	3.72 µM	13.9 µM	45 µM	> 100 µM	10.2 µM	0.227 µM	20.9 µM	6.23 µM	–	16.3 µM	14.9 µM	18.3 µM
O=C(CC(C(=O)c1ccsc1)c1ccccc1)c1ccccc1 (stereo not drawn)	> 100 µM	> 100 µM	75.9 µM	> 100 µM	> 100 µM	> 100 µM	> 100 µM	> 100 µM	> 100 µM	> 100 µM	> 100 µM	> 100 µM	> 100 µM	> 100 µM	> 100 µM	> 100 µM	–	> 100 µM	> 100 µM	> 100 µM
CC1=C(/C=C/C(C)=C/C=C/C(C)=C/C(=O)OC2CC(n3cc(F)c(=O)[nH]c3=O)OC2CO)C(C)(C)CCC1 (stereo not drawn)	36.8 µM	13.9 µM	21.5 µM	32.9 µM	26.9 µM	15.3 µM	16.7 µM	4.96 µM	23.6 µM	23.2 µM	–	31.8 µM	32 µM	14.9 µM	18.6 µM	19.5 µM	22.3 µM	19.5 µM	> 56 µM	13.7 µM
CC(=O)N(C)CCc1c[nH]c2ccccc12	> 100 µM	> 100 µM	> 100 µM	> 100 µM	> 100 µM	> 100 µM	> 100 µM	> 100 µM	> 100 µM	> 100 µM	–	> 100 µM	> 100 µM	> 100 µM	> 100 µM	> 100 µM	> 100 µM	> 100 µM	> 100 µM	> 100 µM
CCOc1nnnc2nc[nH]c12	> 100 µM	> 100 µM	> 100 µM	> 100 µM	> 100 µM	> 100 µM	> 100 µM	> 100 µM	> 100 µM	> 100 µM	> 100 µM	–	> 100 µM	> 100 µM	> 100 µM	> 100 µM	> 100 µM	> 100 µM	> 100 µM	> 100 µM
C=C1CC/C=C(\C)CCC[C@H](C)[C@@H](O)[C@@H]2OC(=O)C(=C)[C@@H]2C[C@H]1O	39.2 µM	22.6 µM	51.7 µM	> 42.6 µM	> 32.4 µM	27.1 µM	18.6 µM	25.9 µM	16.7 µM	35.9 µM	> 100 µM	–	42 µM	19.2 µM	24.7 µM	23.1 µM	3 µM	> 42.7 µM	33.9 µM	30.8 µM
O=C1C=C(NCCOCCO)C(=O)c2c(O)ccc(O)c21	> 100 µM	25.9 µM	33.4 µM	–	33.1 µM	> 100 µM	> 100 µM	28.2 µM	86.5 µM	31.3 µM	> 100 µM	76.2 µM	–	> 100 µM	> 100 µM	> 100 µM	> 100 µM	40.1 µM	> 100 µM	> 100 µM
Nc1ccn([C@H]2CO[C@@H](CO)[C@@H]2O)c(=O)n1	> 100 µM	> 100 µM	> 100 µM	> 100 µM	> 100 µM	> 100 µM	> 100 µM	> 100 µM	–	> 100 µM	> 100 µM	> 100 µM	> 100 µM	> 100 µM	> 100 µM	> 100 µM	> 100 µM	> 100 µM	–	> 100 µM
COC1=C(Br)[C@H](O)[C@@]2(C=C1Br)CC(C(=O)NCCCOc1c(Br)cc(C(O)CNC(C)=O)cc1Br)=NO2 (stereo partly drawn)	> 10 µM	> 10 µM	> 10 µM	–	> 10 µM	> 10 µM	> 10 µM	> 10 µM	> 10 µM	4.4 µM	> 10 µM	> 10 µM	> 10 µM	> 10 µM	> 10 µM	> 10 µM	> 10 µM	> 10 µM	> 10 µM	> 10 µM
Cn1c2ccccc2c(=O)c2cccc(C(=O)NC(CS)C(=O)O)c21 (stereo not drawn)	> 100 µM	> 100 µM	> 100 µM	> 100 µM	> 100 µM	> 100 µM	> 100 µM	> 100 µM	> 100 µM	> 100 µM	> 100 µM	–	> 100 µM	> 100 µM	> 100 µM	> 100 µM	> 100 µM	> 100 µM	> 100 µM	> 100 µM
CC1CN=C(N(C(=O)Nc2ccc(Cl)c(Cl)c2)c2ccccc2)S1 (stereo not drawn)	> 100 µM	50.8 µM	> 100 µM	> 100 µM	> 100 µM	> 100 µM	> 100 µM	–	> 100 µM	> 100 µM	> 100 µM	> 100 µM	> 100 µM	> 100 µM	> 100 µM	> 100 µM	–	> 100 µM	> 100 µM	> 100 µM
CC(=O)OCC1OC(n2c(C)cc(C)c(C#N)c2=S)C(OC(C)=O)C(OC(C)=O)C1OC(C)=O (stereo not drawn)	> 100 µM	> 100 µM	> 100 µM	–	–	> 100 µM	> 100 µM	> 100 µM	> 100 µM	> 100 µM	> 100 µM	> 100 µM	> 100 µM	> 100 µM	> 100 µM	> 100 µM	> 100 µM	> 100 µM	> 100 µM	> 100 µM
O=C(Cn1c(-c2ccccc2)cc2ccccc21)N1CCCC1	> 100 µM	> 100 µM	> 100 µM	> 100 µM	> 100 µM	> 100 µM	> 100 µM	> 100 µM	> 100 µM	> 100 µM	–	–	> 100 µM	> 100 µM	> 100 µM	> 100 µM	> 100 µM	> 100 µM	> 100 µM	> 100 µM
COC(=O)NC(C(F)(F)F)(C(F)(F)F)P1(=O)OCCCO1	82.1 µM	40.6 µM	> 100 µM	–	82.4 µM	84.6 µM	> 100 µM	33.2 µM	83.3 µM	70.3 µM	38 µM	> 100 µM	> 100 µM	65.6 µM	> 100 µM	73.8 µM	68.3 µM	> 100 µM	> 100 µM	58.6 µM
COc1ccc(C[C@H]2COC(=O)[C@@H]2Cc2cccc(Br)c2)cc1OC	> 100 µM	30.5 µM	58 µM	97.1 µM	83.3 µM	67.2 µM	> 100 µM	> 100 µM	69.6 µM	60.1 µM	–	39.2 µM	> 100 µM	82.3 µM	55.5 µM	> 100 µM	61.2 µM	63.2 µM	> 100 µM	> 100 µM
CC1(C)OC[C@@H]([C@H](O)C2C=CC(=O)S2)O1 (stereo partly drawn)	> 100 µM	45.7 µM	> 100 µM	> 100 µM	98.6 µM	> 100 µM	59.3 µM	35.9 µM	56.4 µM	> 100 µM	51.1 µM	97.9 µM	> 100 µM	50 µM	> 100 µM	38.8 µM	47.5 µM	> 100 µM	–	> 100 µM
C=C(Nc1nc2ccc(C)cc2s1)C(=O)C(CC)C(=O)C(CC)CC1C(=O)NC(=O)NC1=O (stereo not drawn)	> 100 µM	> 100 µM	> 100 µM	> 100 µM	> 100 µM	> 100 µM	> 100 µM	> 100 µM	> 100 µM	> 100 µM	–	> 100 µM	> 100 µM	> 100 µM	> 100 µM	> 100 µM	> 100 µM	> 100 µM	> 100 µM	> 100 µM
COC(C)(C)OCCN1CCN(CCN2C3=C(C=C(C(C)=O)C3)Sc3ccccc32)CC1	59.1 µM	32 µM	> 100 µM	> 100 µM	37.2 µM	35.5 µM	36 µM	29.4 µM	42.1 µM	36.5 µM	34 µM	32.4 µM	69.8 µM	43.1 µM	> 100 µM	43.2 µM	44.1 µM	–	36.5 µM	36.2 µM
COC(=O)c1nsc(OC)c1Cl	> 100 µM	> 100 µM	> 100 µM	> 100 µM	> 100 µM	–	> 100 µM	> 100 µM	> 100 µM	> 100 µM	–	> 100 µM	> 100 µM	> 100 µM	> 100 µM	> 100 µM	> 100 µM	> 100 µM	> 100 µM	> 100 µM
CCOC(=O)NNC(=O)NCCCCNC(=O)NNC(=O)OCC	> 100 µM	> 100 µM	–	> 100 µM	> 100 µM	> 100 µM	> 100 µM	> 100 µM	> 100 µM	> 100 µM	> 100 µM	> 100 µM	> 100 µM	> 100 µM	> 100 µM	–	> 100 µM	–	> 100 µM	> 100 µM
CC(C)(C)OC/C=C(/CO)[C@@H]1C=C[C@H](O)C1	> 100 µM	–	> 100 µM	> 100 µM	> 100 µM	> 100 µM	> 100 µM	> 100 µM	–	> 100 µM	> 100 µM	> 100 µM	> 100 µM	> 100 µM	> 100 µM	> 100 µM	> 100 µM	> 100 µM	–	> 100 µM
COC1(OC)CCCc2c1no[n+]2[O-]	> 100 µM	> 100 µM	> 100 µM	> 100 µM	> 100 µM	> 100 µM	> 100 µM	> 100 µM	> 100 µM	> 100 µM	> 100 µM	> 100 µM	> 100 µM	> 100 µM	> 100 µM	> 100 µM	–	> 100 µM	> 100 µM	> 100 µM
